Literature values, collected in patent publication US20230287038A1, “PURIFIED SAPONINS AND CHROMATOGRAPHIC PROCESS FOR PURIFICATION OF SAME” (ACCESS TO ADVANCED HEALTH INSTITUTE, priority 2020, published 2023).

Tests used:
[1] = system: antigens bovine serum albumin and cytochrome b5; details: mice
[2] = reversed-phase chromatography fractions of saponin extract
[3] = aqueous solution
[4] = system: unconjugated bacterial polysaccharides; details: including unconjugated bacterial polysaccharides

Row | Substance | antibody response to bovine serum albumin and cytochrome b5 [1] | adjuvant activity [2] | pH at which hydrolysis of the fatty acyl ester bond (de-acylation) is minimized [3] | antibody response to T-independent antigens [4]
1 | QS-17 | stimulate potent antibody responses | identified with adjuvant activity | – | –
2 | QS-18 | stimulate potent antibody responses | identified with adjuvant activity | – | –
3 | QS-21 | stimulate potent antibody responses | identified with adjuvant activity | ~5.5 | enhance antibody responses
